Like-named read-outs stand apart in the source and are kept apart here.
Legend:
M14 = test: cells; details: Homo sapiens
UACC-62 = test: cells; details: Homo sapiens
HL-60(TB) = details: for Mean Optical Densities / Percent Growth: HL-60(TB)
NCI-H23 = test: cells; details: Homo sapiens
SNB-75 = test: cells; details: Homo sapiens
NCI/ADR-RES = details: for Mean Optical Densities / Percent Growth: NCI/ADR-RES
SW-620 = test: cells; details: Homo sapiens
SK-MEL-28 = test: cells; details: Homo sapiens
SN12C = details: for Mean Optical Densities / Percent Growth: SN12C
NCI-H522 = test: cells; details: Homo sapiens
MCF-7 tumors = test: MCF-7 tumor growth in nude mice, BS-194 subcutaneous; format: in vivo, Balb/c nude mice; details: subcutaneous twice daily, 14 days
Procedure: In all, 32 female 8- to 10-week Balb/c nude mice (Harlan UK) were randomly divided into three groups. The mice received 0.72 mg 60-day release E2 pellets (Innovative Research of America, USA), subcutaneously implanted in one flank. MCF7 cells, were trypsinized and 5×10^6 cells in 0.1 ml of PBS were subcutaneously injected into the other flank of each mouse and tumor volumes were measured every 2-3 days, according to the formula (tumor width squared×tumor length)/2. Animal weight was also recorded throughout the course of the study. The animals were injected subcutaneously with BS-194, prepared in 10% DMSO, 50 mM HCl, 5% Tween 20, and 85% Saline, twice daily for 14 days, at which point the animals were sacrificed. The xenograft experiments were conducted after appropriate ethical approval and licensing was obtained in accordance with the UK ‘Guidance on the operation of animals (Scientific Procedure) Act 1986 (HMSO, London, UK, 1990).

MDA-MB-435 = test: cells; details: Homo sapiens
TK-10 = test: cells; details: Homo sapiens
EKVX = test: cells; details: Homo sapiens
SR = test: cells; details: Homo sapiens
OVCAR-4 = test: cells; details: Homo sapiens
NEK7 = NEK7 (Homo sapiens, UniProt Q8TDX7); test: Kinase screen: NEK7 assay; format: biochemical; details: read-out: Mean Remaining Enzyme Activity (%)
Procedure: (§1) Generally, the same procedure was used for all assays. Since the total assay volume was 25.5 microliters, 0.5 microliters of inhibitors at 51× assay concentration were added to the plates before any other addition.
(§2) The basic procedure was to add 0.5 microliters inhibitor/control in DMSO to plate. Fifteen microliters of enzyme/substrate/buffer mix were added and incubated for 5 min. Ten microliters MgATP at the relevant concentration were added and incubated for 30 min. The assay was stopped by adding 5 microliters of 3% orthophosphoric acid. The assay was transferred to a p81 filter plate and read in a scintillation counter of 30 sec/well. Note that this assay procedure was not followed for MKK1, which instead involved a two-step assay, and PKC alpha, which required the addition of lipid vesicles.
(500-1000 cpm/pmole) and incubated for 30 min at room temperature. Assays were stopped by addition of 5 μl of 0.5 M (3%) orthophosphoric acid and then harvested onto P81 Unifilter plates with a wash buffer of 50 mM orthophosphoric acid.

JNK3 = JNK3 (Homo sapiens, UniProt P53779); test: Kinase screen: JNK3 alpha 1 assay; format: biochemical; details: read-out: Mean Remaining Enzyme Activity (%)
Procedure: as §1, §2
JNK3 alpha 1 assay: JNK3 alpha 1(5-20 mU diluted in 50 mM Tris (pH 7.5), 0.1 mM EGTA, 1 mg/ml BSA, 0.1% b-mercaptoethanol) was assayed against ATF2 (activating transcription factor in a final volume of 25.5 μl in 50 mM Tris pH 7.5, 0.1 mM EGTA, 0.1% b-Mercaptoethanol, ATF2 (3 μM), 10 mM magnesium acetate and 0.05 mM [33P-g-ATP] (500-1000 cpm/pmole) and incubated for 30 min at room temperature. Assays were stopped by addition of 5 μl of 0.5 M (3%) orthophosphoric acid and then harvested onto P81 Unifilter plates with a wash buffer of 50 mM orthophosphoric acid.

Chain of NEK7 (Q8TDX7 whole entry, species assumed): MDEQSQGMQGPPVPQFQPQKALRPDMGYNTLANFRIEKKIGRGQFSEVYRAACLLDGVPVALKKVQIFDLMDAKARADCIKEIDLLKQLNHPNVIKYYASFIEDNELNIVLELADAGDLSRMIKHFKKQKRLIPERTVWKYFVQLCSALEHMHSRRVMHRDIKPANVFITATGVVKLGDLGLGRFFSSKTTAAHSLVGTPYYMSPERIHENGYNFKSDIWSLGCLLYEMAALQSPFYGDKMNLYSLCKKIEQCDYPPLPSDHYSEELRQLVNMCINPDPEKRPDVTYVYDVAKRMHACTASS
Chain of JNK3 (P53779 1-422 isoform P53779-2, species assumed): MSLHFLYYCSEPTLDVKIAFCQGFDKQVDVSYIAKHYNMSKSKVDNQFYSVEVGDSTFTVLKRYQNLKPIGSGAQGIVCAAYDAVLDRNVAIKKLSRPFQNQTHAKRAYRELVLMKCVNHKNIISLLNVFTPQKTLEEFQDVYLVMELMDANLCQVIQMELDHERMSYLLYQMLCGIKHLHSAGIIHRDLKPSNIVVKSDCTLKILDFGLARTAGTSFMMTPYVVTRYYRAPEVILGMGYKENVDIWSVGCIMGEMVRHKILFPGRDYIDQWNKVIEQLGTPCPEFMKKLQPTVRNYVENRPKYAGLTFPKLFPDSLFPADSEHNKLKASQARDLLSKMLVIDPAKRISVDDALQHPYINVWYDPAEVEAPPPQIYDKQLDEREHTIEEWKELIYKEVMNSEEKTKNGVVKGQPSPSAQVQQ

CC(C)c1cnn2c(NCc3ccccc3)cc(N[C@@H](CO)[C@H](O)CO)nc12 [ICEC0318, (3S)-3-(7-(Benzylamino)-3-isopropylpyrazolo[1,5-a]pyrimidin-5-ylamino)butane-1,2,4-triol]
GI50 (M14; M14): 305 nM | CC50 (M14; M14, read-out: LC50): 45200 nM | GI50 (UACC-62; UACC-62): 155 nM | CC50 (UACC-62; UACC-62, read-out: LC50): 644 nM | TGI (HL-60(TB); HL-60(TB) (Leukemia)): 6.07E−7 | Mean Optical Densities (HL-60(TB); log10 concentration −4.0): 0.495 | Percent Growth (HL-60(TB); log10 concentration −4.0): −2% | Mean Optical Densities (HL-60(TB); log10 concentration −5.0): 0.484 | Percent Growth (HL-60(TB); log10 concentration −5.0): −4% | Mean Optical Densities (HL-60(TB); log10 concentration −6.0): 0.407 | Percent Growth (HL-60(TB); log10 concentration −6.0): −19% | Mean Optical Densities (HL-60(TB); log10 concentration −7.0): 0.932 | Percent Growth (HL-60(TB); log10 concentration −7.0): 69% | Mean Optical Densities (HL-60(TB); log10 concentration −8.0): 1.084 | Percent Growth (HL-60(TB); log10 concentration −8.0): 94% | GI50 (NCI-H23; NCI-H23): 260 nM | CC50 (NCI-H23; NCI-H23, read-out: LC50): > 100000 nM | GI50 (SNB-75; SNB-75): 222 nM | CC50 (SNB-75; SNB-75, read-out: LC50): 1600 nM | TGI (NCI/ADR-RES; NCI/ADR-RES (Breast Cancer)): >1.00E−4 | Mean Optical Densities (NCI/ADR-RES; log10 concentration −4.0): 0.531 | Percent Growth (NCI/ADR-RES; log10 concentration −4.0): 10% | Mean Optical Densities (NCI/ADR-RES; log10 concentration −5.0): 0.657 | Percent Growth (NCI/ADR-RES; log10 concentration −5.0): 22% | Mean Optical Densities (NCI/ADR-RES; log10 concentration −6.0): 1.107 | Percent Growth (NCI/ADR-RES; log10 concentration −6.0): 63% | Mean Optical Densities (NCI/ADR-RES; log10 concentration −7.0): 1.638 | Percent Growth (NCI/ADR-RES; log10 concentration −7.0): 111% | Mean Optical Densities (NCI/ADR-RES; log10 concentration −8.0): 1.587 | Percent Growth (NCI/ADR-RES; log10 concentration −8.0): 107% | GI50 (SW-620; SW-620): 285 nM | CC50 (SW-620; SW-620, read-out: LC50): > 100000 nM | GI50 (SK-MEL-28; SK-MEL-28): 245 nM | CC50 (SK-MEL-28; SK-MEL-28, read-out: LC50): 37100 nM | TGI (SN12C; SN12C (Renal Cancer)): >1.00E−4 | Mean Optical Densities (SN12C; log10 concentration −4.0): 0.531 | Percent Growth (SN12C; log10 concentration −4.0): 11% | Mean Optical Densities (SN12C; log10 concentration −5.0): 0.578 | Percent Growth (SN12C; log10 concentration −5.0): 14% | Mean Optical Densities (SN12C; log10 concentration −6.0): 0.620 | Percent Growth (SN12C; log10 concentration −6.0): 18% | Mean Optical Densities (SN12C; log10 concentration −7.0): 1.515 | Percent Growth (SN12C; log10 concentration −7.0): 84% | Mean Optical Densities (SN12C; log10 concentration −8.0): 1.702 | Percent Growth (SN12C; log10 concentration −8.0): 98% | GI50 (NCI-H522; NCI-H522): 375 nM | CC50 (NCI-H522; NCI-H522, read-out: LC50): > 100000 nM | Change in animal weight (MCF-7 tumors): nearly constant | GI50 (MDA-MB-435; MDA-MB-435): 309 nM | CC50 (MDA-MB-435; MDA-MB-435, read-out: LC50): > 100000 nM | GI50 (TK-10; TK-10): 377 nM | CC50 (TK-10; TK-10, read-out: LC50): > 100000 nM | GI50 (EKVX): 286 nM | CC50 (EKVX; read-out: LC50): > 100000 nM | GI50 (SR): 75.8 nM | CC50 (SR; read-out: LC50): > 100000 nM | GI50 (OVCAR-4; OVCAR-4): 343 nM | CC50 (OVCAR-4; OVCAR-4, read-out: LC50): > 100000 nM

CC(C)c1cnn2c(NCc3ccccc3)cc(NCCCCCCCN)nc12 [BS-181]
remaining activity at 10 µM (NEK7): 97% | remaining activity at 10 µM (JNK3): 128%

— patent US8067424B2, “Selective inhibitors for cyclin-dependent kinases” (Emory University, priority 2007, dated 2011)
